Read-outs that look alike come from different tables or passages of the source. Residues, ends and D or L forms follow the SMILES beside them. No end group written: not given here.
Molecular target: T1, CUL2^ZYG11B (residues 490–728) (Homo sapiens, UniProt Q9C0D3)
T1 construct: PCR was used to amplify CUL2^ZYG11B (residues 490–728); 6×His-SUMO (TEV-cleavable) (N, cleaved yes); made in house; host or cells: E. coli
Experiment: ITC binding of ORF10 NTE synthetic peptides to CUL2^ZYG11B

[1] = figure panels, […], repeated 3 times, read-out: Kd

T1 sequence (Q9C0D3 490-728): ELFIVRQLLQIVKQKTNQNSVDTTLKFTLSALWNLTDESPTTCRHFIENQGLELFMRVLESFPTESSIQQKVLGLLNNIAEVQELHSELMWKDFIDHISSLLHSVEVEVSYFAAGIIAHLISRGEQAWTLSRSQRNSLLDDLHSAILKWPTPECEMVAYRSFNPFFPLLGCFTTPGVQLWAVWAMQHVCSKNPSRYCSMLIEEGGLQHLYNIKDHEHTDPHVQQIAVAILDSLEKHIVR

## NCC(=O)N[C@@H](Cc1ccc(O)cc1)C(=O)O [SARS-2 ORF10 N2] (H-Gly-Tyr-OH; N-terminus and C-terminus assumed)
  Kd: > 200 µM
ITC
  binding to CUL2^ZYG11B (in words): did not bind
Table S4, ITC
  N, stoichiometry: 5.05
  ΔS, entropy variation: 6.52 cal/mole/deg

## CC[C@H](C)[C@H](NC(=O)[C@H](Cc1ccc(O)cc1)NC(=O)CN)C(=O)O [SARS-2 ORF10 N3] (H-Gly-Tyr-Ile-OH)
[1]
  Kd: 14.5 µM

## CC[C@H](C)[C@H](NC(=O)[C@H](Cc1ccc(O)cc1)NC(=O)CN)C(=O)N[C@@H](CC(N)=O)C(=O)O [SARS-2 ORF10 N4] (H-GYIN-OH)
[1]
  Kd: 5.18 µM

## GAINV [SARS-2 ORF10 N5-Y2A]
[1]
  Kd: 25.2 µM

## GFWCR [SNX11-degron-5, reference compound]
Table S4, ITC, MicroCal iTC200, peptide 0.5–1 mmol/L in syringe, protein 0.03 mmol/L in cell, 18 x 2 μL injections, repeated 3 times, Kd calculated as 1/Ka, read-out: Kd
  Kd: 0.4 µM

## GPINV [SARS-2 ORF10 N5-Y2P, altered peptide derived from SARS-CoV-2 ORF10 N5, Y2P]
ITC
  binding to CUL2^ZYG11B (in words): disrupted binding completely

## SYINV [SARS-2 ORF10 N5-G1S]
  Kd: 13.2 µM
